Laboratory results taken from patent EP0896965A1, “Inhibitors of G-protein-beta, gamma subumit function” (BOEHRINGER MANNHEIM GMBH, priority 1997, dated 1999).
No end group written: not given here.

Tests used:
[1] = test system: β-adrenergic receptor kinase; test: Inhibition of rhodopsin phosphorylation by β-adrenergic receptor kinase in the presence of Gβγ; assay type: biochemical; conditions: peptide at 100 µM; 1 µM rhodopsin, 2.5 nM βARK-1, 20 nM Gβγ
Description: (§1) • Figure 1 Inhibition of GTPase activity of Go by His6-tagged phosducin and its N-terminally truncated variants. […] The size of the short form of PhLP is indicated by the line on the top. Analysis with nonlinear curve fitting gave the following IC50-values: phosducin 15±1 nM, phosducin(64-246) 33±3 nM, phosducin( 138-246) 25±2 nM, phosducin(172-246) 95±13 nM, phosducin(204-246) 240±20 nM. Data are mean ± SEM of 3 independent experiments • Figure 2 Direct binding of His6-tagged phosducin and phosducin(204-246) to Gβγ. […] After washing, the Gβγ retained in the pellet was detected by SDS-polyacrylamide gel electrophoresis and Western blotting with antibodies directed against Gβ. • Figure 3 Inhibition of G0GTPase activity by synthetic peptides (top) derived from the C-terminus of phosducin. […] The activity of βARK was determined using rhodopsin in rod outer segments the substrate as in Schroeder and Lohse 1996. […] Phospholipase C-β2 activity was determined with a truncated version of PLC-β2 (PLC-mut) as described by Dietrich et al. (1994). […] Activity is expressed as pmoles of inositol 1.4.5-triphosphate formed per minute. • Figure 5 Amide region of a 500 MHz WATERGATED NOESY spectrum of the peptide phosducin(204-231) in 10 mM Phosphate buffer containing 100 mM NaCI and 10% D2O at pH = 6.5 and 277 K. The mixing time used was 250 ms. […]

[2] = test system: phospholipase C-β2; test: Inhibition of Gβγ-stimulated phospholipase C-β2 activity; assay type: biochemical; conditions: peptide at 100 µM; Gβγ 600 nM
Description: as §1

With GDVESFLNEYGLLPEKEM [phosducin(215-232)] as the sequence, how does the “antagonism of the stimulatory effects of Gβγ on the activity of the β-adrenergic receptor kinase” value [1] read?
The value was “antagonized”.

What about the “antagonism of the stimulatory effects of Gβγ on the activity of phospholipase Cβ2” value [2] of the same sequence?
The value was “antagonized”.
